These results are taken from patent US20250064846A1, “TREATMENT AND PREVENTION OF TRIGEMINAL NEURALGIA” (THE JOHNS HOPKINS UNIVERSITY, priority 2022, published 2025).

The subject of one experiment is NRF2. The experiment in a line: NRF2 stability, ubiquitination and nuclear translocation in HEK-293 cells overexpressing FLAG-KEAP1 and myc-NRF2. Conditions: for stabilization of NRF2 / nuclear translocation of NRF2: 10 μM for 6 hours; for nuclear translocation of NRF2: nuclear myc-NRF2 vs vehicle; for inhibition of NRF2 ubiquitination: HEK-293 cells overexpressing FLAG-KEAP1, myc-NRF2 and HA-ubiquitin. The experiment is classed as cell-based. The procedure: To determine a ratio of KFAP1 to NRF2 cDNA that best mimics baseline NRF2 activity, luciferase activity was measured 48 h after transfection with varying ratios of KEAP1 to NRF2 cDNA, normalized to total protein (FIG. 21A). Luciferase expression is controlled by a promoter that contains several NRF2 binding sites and is thus a measure of NRF2 activity. A 2.5 μg KFAP1 to 1 μg NRF2 cDNA ratio returned luciferase activity to baseline and was therefore employed for subsequent biochemical studies evaluating NRF2 stability and nuclear translocation. FIGS. 21B and 21C show the quantification (FIG. 21B) and immunoblots (FIG. 21C) of myc-NRF2, GAPDH, and H2B in whole cell lysates and cytoplasmic and nuclear subcellular fractions of HEK-293 cells overexpressing FLAG-KEAP1 and myc-NRF2, treated with vehicle, 10 μM MG-132, 10 μM sulforaphane (SF), 10 μM exemestane, or 10 μM JQ-1 for 6 hours. Data are expressed as a normalized ratio of nuclear myc-NRF2 compared to the vehicle-treated condition. FIG. 21D is immunoblots of lysates (input) and myc immunoprecipitate (IP) from HEK-293 cells overexpressing FLAG-KEAP1, myc-NRF2, and HA-ubiquitin. Data are either representative of or quantified from n=3 independent experiments except in FIG. 21A, where n=1 in triplicate. In FIG. 21A, mean f SEM depicted. In FIG. 21B, median and range depicted. *=P<0.05 and ns=P>0.05 by one-way ANOVA followed by post-hoc Dunnett's test.

Experiment [1] has as its system constrictive mouse model of trigeminal neuralgia. Nature of the experiment: Cold allodynia (ice-cold acetone) after constriction of the maxillary nerve. The experiment is classed as in vivo. Conditions: i.p. daily, sulforaphane 10 mg/kg; for cold allodynia (analgesic effect): NRF2−/− mice, exemestane 10 mg/kg, JQ-1 40 mg/kg.
The test system of another experiment is TRPA1. The experiment in a line: Western blot for TRPA1 from maxillary nerves. Type of experiment: in vivo, mouse. Conditions: normalized to β-actin; vs vehicle. The source says:
FIGS. 15A-15H are western blots for TRPA1 (FIGS. 15A, 15C, 15E, and 15G) and graphs of relative TRPA1 expression (FIGS. 15B, 15D, 15F and 15H) from maxillary nerves of mice following constriction compared to sham surgery (FIG. 15A-15B) or treatment with sulforaphane (FIG. 15C-15D), exemestane (FIG. 15E-15F), or JQ-1 (FIG. 15G-15H), normalized to β-actin. Lanes and points represent individual mice. Median and range depicted in graphs of relative TRPA1 expression. ns=P>0.05 by two-tailed unpaired Student's t-test.
Western Blotting Western blotting was performed as previously described (See Vasavda, C. et al. Cell Chem Biol 26, 1450-1460.e7 (2019)). Briefly, tissues were homogenized at 4° C. in lysis buffer (pH 7.4 solution of 50 mM Tris-HCl, 150 mM NaCl, 0.1% SDS, 0.5% sodium deoxycholate, and 1% Triton X-100) supplemented with protease inhibitors (Sigma). When dissecting maxillary nerves for immunoblot analysis, nerves were as dissected both as proximally towards the semilunar ganglion and as distal to the skin as possible. Nerves were harvested 11 days after surgery, immediately after the final behavioral test. Lysates were then pulse sonicated and centrifuged at 16,000 g for 10 min at 4° C. Fifteen micrograms of cleared lysate were run on a 4-12% polyacrylamide Bis-Tris gradient gel in running buffer (pH 7.3 solution of 50 mM MES, 50 mM Tris Base, 0.1% SDS, 1 mM EDTA) and then transferred to a PVDF membrane. Membranes were blocked with 5% milk in TBS-T (pH 7.6 solution of 16 mM Tris-HCl, 140 mM NaCl, 0.1% Tween-20) for 1 hr at 25° C. and then incubated with primary antibodies in 3% bovine serum albumin (BSA) (w/v) in TBS-T overnight at 4° C. The following day, membranes were washed with TBS-T, and then incubated with secondary antibodies in 3% BSA (w/v) in TBS-T for 1 hr at 25° C. The following primary antibodies were used: rabbit anti-4-HNE (Abeam ab46545; 1:1.000), rabbit anti-TRPA1 (Novus Biologicals NB110-40763; 1:1,000), rabbit anti-DNP (Millipore Sigma 90451; 1:150), and mouse anti-β-actin (Santa Cruz Biotech sc-47778 HRP; 1:10,000). […]
A general note: Immunoblotting shows a protein as a band on a membrane.

For experiment [2], the system named is maxillary nerves of mice after nerve ligation. Nature of the experiment: Oxidative stress assay in maxillary nerves (4-HNE, protein carbonylation, MDA). The note with it: for levels of 4-HNE in maxillary nerves after nerve ligation / protein carbonylation in maxillary nerves after nerve ligation: western blot normalized to β-actin, daily i.p. pre-treatment, vs vehicle. The experiment is classed as in vivo, mouse. The procedure:
Western Blotting Western blotting was performed as previously described (See Vasavda, C. et al. Cell Chem Biol 26, 1450-1460.e7 (2019)). Briefly, tissues were homogenized at 4° C. in lysis buffer (pH 7.4 solution of 50 mM Tris-HCl, 150 mM NaCl, 0.1% SDS, 0.5% sodium deoxycholate, and 1% Triton X-100) supplemented with protease inhibitors (Sigma). When dissecting maxillary nerves for immunoblot analysis, nerves were as dissected both as proximally towards the semilunar ganglion and as distal to the skin as possible. Nerves were harvested 11 days after surgery, immediately after the final behavioral test. Lysates were then pulse sonicated and centrifuged at 16,000 g for 10 min at 4° C. Fifteen micrograms of cleared lysate were run on a 4-12% polyacrylamide Bis-Tris gradient gel in running buffer (pH 7.3 solution of 50 mM MES, 50 mM Tris Base, 0.1% SDS, 1 mM EDTA) and then transferred to a PVDF membrane. Membranes were blocked with 5% milk in TBS-T (pH 7.6 solution of 16 mM Tris-HCl, 140 mM NaCl, 0.1% Tween-20) for 1 hr at 25° C. and then incubated with primary antibodies in 3% bovine serum albumin (BSA) (w/v) in TBS-T overnight at 4° C. The following day, membranes were washed with TBS-T, and then incubated with secondary antibodies in 3% BSA (w/v) in TBS-T for 1 hr at 25° C. The following primary antibodies were used: rabbit anti-4-HNE (Abeam ab46545; 1:1.000), rabbit anti-TRPA1 (Novus Biologicals NB110-40763; 1:1,000), rabbit anti-DNP (Millipore Sigma 90451; 1:150), and mouse anti-β-actin (Santa Cruz Biotech sc-47778 HRP; 1:10,000). The following secondary antibodies were used: donkey anti-rabbit IgG (GE Healthcare NA934; 1:10,000) and goat anti-rabbit (Millipore Sigma 90452; 1:300).
Oxidative Stress Assay % 4-HNE was quantified by Western blot as described above with a rabbit anti-4-HNE (Abeam ab46545; 1:1,000) primary antibody. Protein carbonylation was assessed with the OxyBlot Protein Oxidation Detection Kit as per the manufacturer's instructions. Protein carbonylation was quantified by western blot as described above with a rabbit anti-DNP (Millipore Sigma 90451; 1:150) primary antibody. MDA was quantified with the OxiSelect TBARS Assay Kit as per the manufacturer's instructions. Concentrations below the limit of detection (LOD) were censored and substituted with a constant value of the […].

On to `Cc1sc2c(c1C)C(c1ccc(Cl)cc1)=N[C@@H](CC(=O)OC(C)(C)C)c1nnc(C)n1-2` [JQ-1, (S)-tert-butyl 2-(4-(4-chlorophenyl)-2,3,9-trimethyl-6H-thieno[3,2-f][1,2,4]triazolo[4,3-a][1,4]diazepin-6-yl)acetate], for which, in the experiment with NRF2, the “stabilization of NRF2” value is listed as “neither stabilizes NRF2”, the “nuclear translocation of NRF2” value is listed as “does not” and the “inhibition of NRF2 ubiquitination” value is listed as “nor inhibits its ubiquitination”. Further, in experiment [1], the “cold allodynia (analgesic effect)” value is reported as “lowers”. The “TRPA1 expression in maxillary nerves” value with TRPA1 is on record as “did not affect TRPA1 expression”. Besides, in experiment [2], the “levels of 4-HNE in maxillary nerves after nerve ligation” value (from here on “levels of 4-HNE in maxillary nerves”) was “reduced” and the “protein carbonylation in maxillary nerves after nerve ligation” value (from here on “protein carbonylation”) was “reduced”.
For the compound `C=C1C[C@@H]2[C@H](CC[C@]3(C)C(=O)CC[C@@H]23)[C@@]2(C)C=CC(=O)C=C12` [exemestane, 6-methylenandrosta-1,4-diene-3,17-dione], in the experiment on NRF2, the “stabilization of NRF2” value is “both sulforaphane and exemestane do”; the “nuclear translocation of NRF2” value was “promote nuclear translocation of NRF2”; the “inhibition of NRF2 ubiquitination” value was “both sulforaphane and exemestane do”. Besides, in experiment [1], the “cold allodynia (analgesic effect)” value is on record as “lose their analgesic effects”. The “TRPA1 expression in maxillary nerves” value with TRPA1 is given as “did not affect TRPA1 expression”. In experiment [2], the “levels of 4-HNE in maxillary nerves” value is reported as “reduced” and the “protein carbonylation” value is given as “reduced”.
For `C[S+]([O-])CCCCN=C=S` (centres unmarked) [sulforaphane, 1-isothiocyanato-4-(methanesulfinyl)butane], in the experiment with NRF2, the “stabilization of NRF2” value is “both sulforaphane and exemestane do”; the “nuclear translocation of NRF2” value is recorded as “promote nuclear translocation of NRF2”; the “inhibition of NRF2 ubiquitination” value is “both sulforaphane and exemestane do”. In addition, the “cold allodynia (analgesic effect)” value in experiment [1] is given as “lose their analgesic effects”. The cold allodynia entry in experiment [1] (TRPA1−/− mice, compared with genetic deletion of TRPA1 alone) is recorded as “did not lower”. In addition, the “TRPA1 expression in maxillary nerves” value in the experiment on TRPA1 is reported as “did not affect TRPA1 expression”. The “malondialdehyde in maxillary nerves after nerve ligation” value in experiment [2] (sulforaphane 10 mg/kg, i.p., normalized to protein) is “reduced”. For the same compound, in experiment [2], the “levels of 4-HNE in maxillary nerves” value is given as “reduced” and the “protein carbonylation” value was “reduced”.
